Results published in patent US10308686B2, “Gamma-AApeptides with potent and broad-spectrum antimicrobial activity” (priority 2012, dated 2019).
Converted amounts (≈) assume the structure as drawn.

Columns and labels:
[1] = tested on: multi-drug resistant S. epidermidis (RP62A); conditions: Table 7
[2] = tested on: vancomycin-resistant E. faecalis (ATCC 700802); conditions: Table 7
[3] = tested on: human red blood cells (hRBC's); assay: Hemolysis assay; format: cell-based; conditions: red cells of human
Experimental: Freshly drawn human red blood cells (hRBC's) with additive K2 EDTA (spray-dried) were washed with PBS buffer several times and centrifuged at 1000 g for 10 min until a clear supernatant was observed. The hRBC's were resuspended in 1×PBS to get a 5% v/v suspension. Two-fold serial dilutions of γ-AApeptides dissolved in 1×PBS from 250 μg/ml through 1.6 μg/ml were added to a sterile 96-well plate to make up a total volume of 50 μL in each well. Then 50 μL of 5% v/v hRBC solution was added to make up a total volume of 100 μL in each well. The 0% hemolysis point and 100% hemolysis point were determined in 1×PBS and 0.2% Triton-X-100, respectively (Patch et al., 2003). The plate was then incubated at 37° C. for 1 h and centrifuged at 3500 rpm for 10 min. The supernatant (30 μL) was diluted with 100 μL of 1×PBS and absorption was detected by measuring the optical density at 360 nm by Biotek Synergy HT microtiter plate reader. % hemolysis was determined by the following equation: % hemolysis=(Abssample−AbsPBS)/(AbsTriton−AbsPBS)×100 H50 is the concentration of γ-AApeptide amphiphiles at which 50% hemolysis was observed. The highest concentration tested in the hemolytic assay was 500 μg/ml. 7. Fluorescence Microscopy
The sequences shown in FIG. 12 were also evaluated via hemolytic assays. Freshly drawn human red blood cells (hRBC's) with additive K2 EDTA (spray-dried) were washed with PBS buffer several times and centrifuged at 1000 g for 10 min until a clear supernatant was observed. The hRBC's were resuspended in 1×PBS to get a 5% v/v suspension. Two-fold serial dilutions of lipidated γ-AApeptides dissolved in 1×PBS from 1 mg/ml through 6.3 μg/ml were added to sterile 96-well plates to make up a total volume of 50 μL in each well. Then 50 μL of 5% v/v hRBC solution was added to make up a total volume of 100 μL in each well. The 0% hemolysis point and 100% hemolysis point were determined in 1×PBS and 0.2% Triton-X-100, respectively (Patch et al., 2003). The plate was then incubated at 37° C. for 1 h and centrifuged at 3500 rpm for 10 min. The supernatant (30 μL) was diluted with 100 μL of 1×PBS and absorption was detected by measuring the optical density at 360 nm with a Biotek Synergy HT microtiter plate reader. % hemolysis was determined by the following equation: % hemolysis=(Abs sample−Abs PBS)/(Abs Triton−Abs PBS)×100

[4] = tested on: methicillin-resistant S. aureus (ATCC 33592); conditions: Table 7
[5] = tested on: multi-drug resistant P. aeruginosa ATCC 27853; conditions: ATCC 27853
[6] = tested on: K. pneumoniae (ATCC 13383)
C. albicans (ATCC 10231) = conditions: ATCC 10231

| Compound | MIC, Gram positive S. epidermidis [1] [µg/mL] | MIC, Gram positive E. faecalis [2] [µg/mL] | Hemolysis HC10 [3] [µg/mL] | Hemolysis HC50 [3] [µg/mL] | MIC, Gram positive S. aureus [4] [µg/mL] | MIC, Gram negative E. coli (E. coli (JM109)) [µg/mL] | MIC, Gram positive B. subtilis (B. subtilis (BR151)) [µg/mL] | MIC, Gram negative P. aeruginosa [5] [µg/mL] | MIC, Gram negative K. pneumoniae [6] [µg/mL] | MIC, Fungi, C. albicans (C. albicans (ATCC 10231)) [µg/mL] |
| --- | --- | --- | --- | --- | --- | --- | --- | --- | --- | --- |
| CCCCCCCCCCCCCCCC(=O)N[C@@H](CCCCN)CN(CC(N)=O)C(=O)CCCN [Sequence 2] | 2 (≈ 3.91 µM) | 2.5 (≈ 4.88 µM) | 25 | 40 | 2.5 (≈ 4.88 µM) | 2.5 (≈ 4.88 µM) | 1.5 (≈ 2.93 µM) | 10 (≈ 19.5 µM) | 35 (≈ 68.4 µM) | 2 (≈ 3.91 µM) |
| CCCCCCCCCCCCCCCC(=O)N[C@@H](CCCCN)CN(CC(=O)N[C@@H](CCCCN)CN(CC(N)=O)C(=O)CCCN)C(=O)CCCN [Sequence 3] | 2.5 (≈ 3.25 µM) | 8 (≈ 10.4 µM) | 40 | 300 | 5 (≈ 6.51 µM) | 30 (≈ 39.1 µM) | 1.5 (≈ 1.95 µM) | 20 (≈ 26 µM) | 20 (≈ 26 µM) | 2 (≈ 2.6 µM) |
| CCCCCCCCCCCCCCCC(=O)N[C@@H](CCCCN)CN(CC(=O)N[C@@H](CCCCN)CN(CC(=O)N[C@@H](CCCCN)CN(CC(N)=O)C(=O)CCCN)C(=O)CCCN)C(=O)CCCN [Sequence 4] | 2 (≈ 1.95 µM) | 10 (≈ 9.76 µM) | 300 | > 500 | 5 (≈ 4.88 µM) | 20 (≈ 19.5 µM) | 1.5 (≈ 1.46 µM) | 15 (≈ 14.6 µM) | >50 | 2 (≈ 1.95 µM) |
| CCCCCCCCCCCCCCCC(=O)N[C@@H](C)CN(CC(=O)N[C@@H](C)CN(CC(=O)N[C@@H](CCCCN)CN(CC(=O)N[C@@H](CCCCN)CN(CC(=O)N[C@@H](CCCCN)CN(CC(N)=O)C(=O)CCCN)C(=O)CCCN)C(=O)CCCN)C(C)=O)C(C)=O [Sequence 5] | 10 (≈ 7.48 µM) | 10 (≈ 7.48 µM) | 200 | > 500 | 10 (≈ 7.48 µM) | 2.5 (≈ 1.87 µM) | 2.5 (≈ 1.87 µM) | 15 (≈ 11.2 µM) | 15 (≈ 11.2 µM) | 7.5 (≈ 5.61 µM) |
| CCCCCCCCCCCCCCCC(=O)N[C@@H](C)CN(CC(=O)N[C@@H](C)CN(CC(=O)N[C@@H](CC(C)C)CN(CC(=O)N[C@@H](CC(C)C)CN(CC(=O)N[C@@H](CC(C)C)CN(CC(N)=O)C(=O)CCCN)C(=O)CCCN)C(=O)CCCN)C(C)=O)C(C)=O [Sequence 6] | 4 (≈ 3.1 µM) | 5 (≈ 3.87 µM) | 60 | > 500 | 4 (≈ 3.1 µM) | 2.5 (≈ 1.94 µM) | 2.5 (≈ 1.94 µM) | 5 (≈ 3.87 µM) | 5 (≈ 3.87 µM) |  |
| CCCCCCCCCCCCCCCC(=O)N[C@@H](C)CN(CC(=O)N[C@@H](C)CN(CC(=O)N[C@@H](CCC(=O)O)CN(CC(=O)N[C@@H](CCC(=O)O)CN(CC(=O)N[C@@H](CCC(=O)O)CN(CC(N)=O)C(=O)CC(=O)O)C(=O)CC(=O)O)C(=O)CC(=O)O)C(C)=O)C(C)=O [Sequence 7] | >100 | >100 | 250 | > 500 | >100 | >100 | >100 | >100 | >100 | >100 |
| CCCCCCCCCCCCCCCC(=O)N[C@@H](C)CN(CC(=O)N[C@@H](C)CN(CC(=O)N[C@@H](Cc1ccccc1)CN(CC(=O)N[C@@H](Cc1ccccc1)CN(CC(=O)N[C@@H](Cc1ccccc1)CN(CC(N)=O)C(=O)CC(=O)O)C(=O)CC(=O)O)C(=O)CC(=O)O)C(C)=O)C(C)=O [Sequence 8] | >100 | >100 | 200 | > 500 | >100 | >100 | >100 | >100 | >100 | >100 |
| CC(=O)N(CC(=O)N[C@@H](C)CN(CC(=O)N[C@@H](CC(C)C)CN(CC(=O)N[C@@H](CC(C)C)CN(CC(=O)N[C@@H](CC(C)C)CN(CC(N)=O)C(=O)CCCN)C(=O)CCCN)C(=O)CCCN)C(C)=O)C[C@H](C)N [Sequence 9] | >100 | >100 | 120 | > 500 | >100 | >100 | >100 | >100 | >100 | >100 |
| CCCCCCCC/C=C\CCCCCCCC(=O)N[C@@H](CCCCN)CN(CC(N)=O)C(=O)CCCN [Sequence 10] | 2 (≈ 3.72 µM) | 2.5 (≈ 4.65 µM) | 40 | 100 | 4 (≈ 7.44 µM) | 2.5 (≈ 4.65 µM) | 2 (≈ 3.72 µM) | 3 (≈ 5.58 µM) | 35 (≈ 65.1 µM) | 2 (≈ 3.72 µM) |
| CCCCCCCC/C=C\CCCCCCCC(=O)N[C@@H](CCCCN)C(=O)N[C@@H](CCCCN)CN(CC(N)=O)C(=O)CCCN [Sequence 11] | 2 (≈ 3 µM) | 2.5 (≈ 3.75 µM) | 80 | > 500 | 5 (≈ 7.51 µM) | 10 (≈ 15 µM) | 2 (≈ 3 µM) | 15 (≈ 22.5 µM) | 40 (≈ 60.1 µM) | 5 (≈ 7.51 µM) |
